Values after ≈ are worked out from the molar mass of the structure shown. “Also recorded” adds a separate entry of the source. Like-named read-outs stand apart in the source and are kept apart here. Where no end group is shown, it is not given here.

The text below walks through data of publication PMC3782441, “Putative Bioactive Motif of Tritrpticin Revealed by an Antibody with Biological Receptor-Like Properties” (PLoS ONE, 2013).

Test [1] concerns E. coli ATCC25922. It is filed as cell-based. As to conditions: ATCC25922, 2 h. On the procedure:
(§1) Radial diffusion assay using double-layered agarose involved incubating ~ 2 x 10^6 mid-log phase bacterial cells with 50 nmol of peptide solution in nutrient-poor agarose at 37°C for 3 h. […] Minimum inhibitory concentration (MIC) was determined by broth microdilution method in which ~10^4 bacterial cells in 100 µl of 10 mM phosphate buffer were incubated for with serially diluted peptide solution in a 96-well microtiter plate for 2 hrs at 37°C. Addition of LB medium subsequently was used to ascertain the minimum peptide concentration sufficient to prevent bacterial growth, observable at OD600.

For test [2], the system named is E. coli BL21λD3. The test is classed as cell-based. The settings on record: BL21λD3, 2 h. On the procedure: as §1
Test [3] concerns E. coli BL21λD3. Put plainly: Radial diffusion assay, E. coli BL21λD3. The test is classed as cell-based. As to conditions: 50 nmol of peptide, 37°C for 3 h. The protocol: as §1
In test [4] the test system is different bacterial strains. Put plainly: Antimicrobial activity against different bacterial strains (radial diffusion, MIC). The test is classed as cell-based. On the procedure: as §1
For test [5] the following is noted: ref [20]; cited from earlier work. An excerpt: (§2) It is now well established that antimicrobial peptides are an important component of the innate defenses in a wide variety of species. They display broad spectrum of activity, rapid killing kinetics, and a lower incidence of generating resistance and are being increasingly explored as an alternative to conventional antibiotics especially as more and more drug resistant strains emerge. As most of these peptides kill microorganisms rapidly as compared to other antibiotics, development of resistance to them also is less likely. One of the large classes of antimicrobial pepti ...

Test [6] concerns DNA. The settings on record: ref [17],[18]; cited from earlier work.
Text: as §2

The test system of test [7] is calmodulin. As to conditions: ref [19]; cited from earlier work.
Text: as §2

In test [8] the test system is topoisomerase I. The settings on record: ref [19]; cited from earlier work.
Text: as §2

The subject of test [9] is mAb 6C6D7. Put plainly: SPR binding of K-tritrpticin (immobilised) to mAb 6C6D7. Also noted: species or system BALB/c mice. As to conditions: for ka (rate of association) / kd (rate of dissociation): BIAcore 2000, CM4 chip, bivalent model; for Kd: KD = kdiss/kass, read-out: KD (dissociation constant); for ΔGeq (Gibbs free energy at equilibrium): ΔGeq = RTlnKD. On the procedure:
(§3) Affinity measurements were based on surface plasmon resonance (SPR) technique, carried out on BIAcore 2000 (GE Healthcare). K-tritrpticin was amine coupled to a CM4 chip (~6 resonance units) and mAb 6C6D7 was injected as analyte with a 6 min association/15 min dissociation phase. Regeneration was achieved by 0.1 N HCl. Interaction curves were simultaneously fit using bivalent model in BIAevaluation program to determine KD = kdiss/kass and ΔGeq = RTlnKD, R is the universal gas constant and T is the temperature in kelvin. The temperature sensitivity of Ag association and dissociation rates of the Ab was assessed on the basis of the Arrhenius plots. The slopes of the Arrhenius plots provide the activation energy (Ea) for the corresponding steps. The individual thermodynamic parameters were calculated using the following equations: ΔHa/d = Ea-RT; ln(ka/d/T) = -ΔHa/d/RT + […] + ln(K'/h). In these equations K' represents Boltzmann’s constant and h the Planck’s constant. Using these equations, the corresponding values of ΔH, T∆S, and ΔG for association and dissociation as well as the corresponding net values at equilibrium were calculated.
In general terms: SPR reads the build-up and loss of mass on a sensor chip optically.

Test [10] has as its target T1, K-tritrpticin (pig).
T1 sequence (peptide): KVRRFPWWWPFLRR
The experiment in a line: SPR; BIAcore 2000; K-tritrpticin amine coupled to a CM4 chip (~6 RU), mAb 6C6D7 as analyte, 6 min association/15 min dissociation; bivalent model; 15 C.

The target in test [11] is T1, K-tritrpticin (pig). The experiment in a line: SPR; BIAcore 2000; K-tritrpticin amine coupled to a CM4 chip (~6 RU), mAb 6C6D7 as analyte, 6 min association/15 min dissociation; bivalent model; 20 C.
Test [12] has as its target T1, K-tritrpticin (pig). Put plainly: SPR; BIAcore 2000; K-tritrpticin amine coupled to a CM4 chip (~6 RU), mAb 6C6D7 as analyte, 6 min association/15 min dissociation; bivalent model; 30 C.
Test [13] has as its target T1, K-tritrpticin (pig). The experiment in a line: SPR; BIAcore 2000; K-tritrpticin amine coupled to a CM4 chip (~6 RU), mAb 6C6D7 as analyte, 6 min association/15 min dissociation; bivalent model; 35 C.
The target in test [14] is T1, K-tritrpticin (pig). The experiment in a line: SPR; BIAcore 2000; K-tritrpticin amine coupled to a CM4 chip (~6 RU), mAb 6C6D7 as analyte (62.5-1000 nM), 6 min association/15 min dissociation; bivalent model; 25 C.
The nature of test [15]: SPR binding of mAb 6C6D7 (analyte) to peptide antigen K-tritrpticin. On the procedure:
as §3

Test [16] in a line: ELISA of hybridoma clones on tritrpticin. It is filed as binding. As to conditions: culture supernatant screening. An excerpt: (§4) The sera from the immunized mouse were checked for anti-tritrpticin antibody titers. The highest responder of the group of mice was then sacrificed to harvest B cells from the spleen. The cells were allowed to fuse with the SP2/0 myeloma cells, maintained in log phase, in the presence of PEG1600 (Sigma-Aldrich). The cells were subjected to hypoxanthine-aminopterin-thymidine (Sigma) selection in DMEM (PAA Laboratories GmbH, Austria) in which only the hybrid cells are able to survive and grow. The supernatant of the wells with colonies of hybrid cells was screened for the presence of peptide recognizing Ab by ELISA, in which tritrpticin was used as coating antigen. The positive clones were further subcloned using limited dilution technique to ensure monoclonality.
(§5) The binding of the Ab from cell supernatant or in purified form, to the various peptide ligands was assayed by indirect ELISA. The peptide analogs were used as coating Ag at a concentration of 10 µg per well on 96-well immunosorbent plates. […] HRP –labeled goat anti-mouse IgG was used as secondary Ab (Jackson Immuno Research) and o-phenylenediamine (Sigma) and H2O2 were used as peroxidase substrate. Absorbance was recorded at 490 nm after addition of 1 N H2SO4.

Test [17] deals with BSA. Put plainly: ELISA of hybridoma clones on BSA (negative control). The test is classed as binding.
Text: as §4, §5
(In general: An ELISA detects its analyte on a solid surface through an enzyme-linked reagent.)

Test [18] in a line: ELISA of hybridoma clones on indolicidin. The test is classed as binding.
Text: as §4, §5

The mark [19] stands for this setting: equilibrium, all temperatures 15-35 °C, Arrhenius plot.

Consider `CC(C)C[C@H](NC(=O)[C@H](Cc1ccccc1)NC(=O)[C@@H]1CCCN1C(=O)[C@H](Cc1c[nH]c2ccccc12)NC(=O)[C@H](Cc1c[nH]c2ccccc12)NC(=O)[C@H](Cc1c[nH]c2ccccc12)NC(=O)[C@@H]1CCCN1C(=O)[C@H](Cc1ccccc1)NC(=O)[C@H](CCCNC(=N)N)NC(=O)[C@H](CCCNC(=N)N)NC(=O)[C@@H](N)C(C)C)C(=O)N[C@@H](CCCNC(=N)N)C(=O)N[C@@H](CCCNC(=N)N)C(=O)O` [Tritrpticin], for which the MIC in test [1] and in [2] was 3.12 µM (≈ 5.94 µg/mL) throughout.

For the molecule “EHGTPPRVMSSM [unrelated peptide used as negative control, reference compound]”, the “formation of clearance zone” value is reported as “did not led to the formation of clearance zone” in test [3] and “did not led to the formation of clearance zone” in test [4] (50 nmoles of peptide, radial diffusion, different bacterial strains).

“ILPWKWPWWPWRR [indolicidin, closely related cathelicidin peptide indolicidin ([…])]”: the “interaction with ATP” value in test [5] was “interaction”. In addition, the “interaction with DNA” value in test [6] is “interaction”. Also, the interaction with calmodulin entry in test [7] is “interaction”. Besides, the “interaction with topoisomerase I” value in test [8] is “interaction”.

On to “K-tritrpticin: tritrpticin with lysine introduced at the N terminus (KVRRFPWWWPFLRR)”, for which the “ka (rate of association)” value stood at 24400 M⁻¹ s⁻¹ in test [9] (15 °C), 37900 M⁻¹ s⁻¹ in test [9] (20 °C), 39100 M⁻¹ s⁻¹ in test [9] (25 °C) and 54100 M⁻¹ s⁻¹ in [9] (35 °C). The “kd (rate of dissociation)” value in [9] (15 °C) was determined as 0.00515 s⁻¹; in test [9] (20 °C), 0.0115 s⁻¹; in [9] (25 °C), 0.0137 s⁻¹; in [9] (30 °C) it was 0.0231 s⁻¹; in test [9] (35 °C), 0.0343 s⁻¹. Further, the Kd in test [9] (15 °C) turned out to be 211 nM; in test [9] (20 °C), 303 nM; in [9] (25 °C), 350 nM; in test [9] (30 °C), 545 nM; in [9] (35 °C), 634 nM. The “ΔGeq (Gibbs free energy at equilibrium)” value in test [9] (15 °C) was -8.80 kcal/mol; in test [9] (20 °C) it was -8.74 kcal/mol; in test [9] (25 °C), -8.80 kcal/mol; in test [9] (30 °C), -8.68 kcal/mol; in test [9] (35 °C), -8.73 kcal/mol.

Take YHDRPPPRPFKH-OH [12PhD1]: the MIC in test [1] and in [2] was 400 µM in each case. Also, in test [4], the “antimicrobial activity compared with tritrpticin” value is recorded as “lower though qualitatively similar broad spectrum antimicrobial activity as tritrpticin”. Also, the antibiotic activity entry in test [4] (radial diffusion and MIC, bacterial strains) is “broad spectrum antibiotic activity”.

B1: anti-tritrpticin monoclonal antibody 6C6D7 (antibody, V domains shown)
VH: VELQESGPELVKPGASVKVSCKASGYSSTDYNMNWVKQSHGKSLEWIGSFDPYNGGITYNQKFEGKATLTVDKSSNTAFMHLNSLTSEDSAVYYCAKYFGYDAWFAYWGQGTLVTVST
VL: FIVMTQTPASLAVSLGQRATISCKASQSVDYGGDSYLNWYQQKPGQPPKLLIYAASNLESGIPARFSGSGSGTDFTLNIHPVEEEDAATYFCQQSHEDPLTFGAGTKLELR
For B1, the Kd in test [10] is 211 nM; in test [11] it was 303 nM; in [12], 545 nM; in test [13], 634 nM; in [14], 350 nM. Also, the koff in test [10] stood at 0.00515 s⁻¹; in test [11] it was 0.0115 s⁻¹; in [12] it was 0.0231 s⁻¹; in [13], 0.0343 s⁻¹; in test [14], 0.0137 s⁻¹. Moreover, the kon in test [10] came out at 24400 M⁻¹ s⁻¹; in [11], 37900 M⁻¹ s⁻¹; in test [12], 44200 M⁻¹ s⁻¹; in test [13], 54100 M⁻¹ s⁻¹; in test [14] it was 39100 M⁻¹ s⁻¹.

B2: mAb 6C6D7: anti-tritrpticin monoclonal antibody, 6C6 subcloned as 6C6D7 (antibody, V domains shown)
VH: VELQESGPELVKPGASVKVSCKASGYSSTDYNMNWVKQSHGKSLEWIGSFDPYNGGITYNQKFEGKATLTVDKSSNTAFMHLNSLTSEDSAVYYCAKYFGYDAWFAYWGQGTLVTVST
VL: FIVMTQTPASLAVSLGQRATISCKASQSVDYGGDSYLNWYQQKPGQPPKLLIYAASNLESGIPARFSGSGSGTDFTLNIHPVEEEDAATYFCQQSHEDPLTFGAGTKLELR
For B2, in [15] (15 °C to 35 °C), the “fold decrease in affinity (KD)” value worked out at 3 fold, the “fold increase in kdiss” value was “approximately 7 fold” and the “fold increase in the association rate constant” value stood at 2 fold. For the same molecule, in [15] (25 °C), the kass stood at 39100 M⁻¹ s⁻¹ and the kdiss turned out to be 0.0137 s⁻¹. Moreover, the Kd in [15] (25 °C, read-out: affinity (KD)) amounted to 350 nM. In test [15] (Arrhenius plots, 15-35 °C), the “temperature sensitivity of dissociation phase” value was “more sensitive to variation in temperature in comparison with the association phase”. In addition, in [15] (setting [19]), the “enthalpy contribution to binding (ΔH)” value is on record as “marginally unfavorable” and the “entropy contribution to binding (TΔS)” value is reported as “highly favorable”.

B3: 6C6: anti-tritrpticin hybridoma clone, subcloned as 6C6D7 (antibody, V domains shown)
VH: VELQESGPELVKPGASVKVSCKASGYSSTDYNMNWVKQSHGKSLEWIGSFDPYNGGITYNQKFEGKATLTVDKSSNTAFMHLNSLTSEDSAVYYCAKYFGYDAWFAYWGQGTLVTVST
VL: FIVMTQTPASLAVSLGQRATISCKASQSVDYGGDSYLNWYQQKPGQPPKLLIYAASNLESGIPARFSGSGSGTDFTLNIHPVEEEDAATYFCQQSHEDPLTFGAGTKLELR
In the case of B3, the “binding to tritrpticin (ELISA)” value in test [16] is listed as “significant binding”. Also, in test [17], the “binding to BSA (ELISA)” value was “negligible binding; also recorded: not able to bind”. In addition, the “binding to indolicidin (ELISA)” value in [18] is listed as “not able to bind”.

Usually MIC stands for the lowest concentration found to suppress growth. A higher MIC goes with weaker potency. One may read the koff as the first-order rate constant of dissociation. Read a high koff as fast dissociation. Usually kon stands for the second-order rate constant of association. A higher kon goes with faster complex formation.
